Test results taken from ChEMBL document CHEMBL5036317, “Identification of Unique Quinazolone Thiazoles as Novel Structural Scaffolds for Potential Gram-Negative Bacterial Conquerors” (J Med Chem, 2021).
Values after ≈ are worked out from the molar mass of the structure shown. Active and inactive are the calls of the source. The calls are words filed in the database; no cut-off is given here.

Tests used:
Staphylococcus aureus [1] = experiment: Antibacterial activity against methicillin-resistant Staphylococcus aureus assessed as inhibition of bacterial growth measured after 24 hrs by two-fold serial dilution method; assay type: functional
Enterococcus faecalis = experiment: Antibacterial activity against Enterococcus faecalis assessed as inhibition of bacterial growth measured after 24 hrs by two-fold serial dilution method; assay type: functional
Staphylococcus aureus [2] = experiment: Antibacterial activity against Staphylococcus aureus assessed as inhibition of bacterial growth measured after 24 hrs by two-fold serial dilution method; assay type: functional
Staphylococcus aureus [3] = experiment: Antibacterial activity against Staphylococcus aureus ATCC 25923 assessed as inhibition of bacterial growth measured after 24 hrs by two-fold serial dilution method; assay type: functional
Staphylococcus aureus [4] = experiment: Antibacterial activity against Staphylococcus aureus ATCC 29213 assessed as inhibition of bacterial growth measured after 24 hrs by two-fold serial dilution method; assay type: functional
Klebsiella pneumoniae = experiment: Antibacterial activity against Klebsiella pneumoniae assessed as inhibition of bacterial growth measured after 24 hrs by two-fold serial dilution method; assay type: functional
Escherichia coli [5] = experiment: Antibacterial activity against Escherichia coli assessed as inhibition of bacterial growth measured after 24 hrs by two-fold serial dilution method; assay type: functional
Pseudomonas aeruginosa [6] = experiment: Antibacterial activity against Pseudomonas aeruginosa assessed as inhibition of bacterial growth measured after 24 hrs by two-fold serial dilution method; assay type: functional
Acinetobacter baumannii = experiment: Antibacterial activity against Acinetobacter baumanii assessed as inhibition of bacterial growth measured after 24 hrs by two-fold serial dilution method; assay type: functional
Pseudomonas aeruginosa [7] = experiment: Antibacterial activity against Pseudomonas aeruginosa ATCC 27853 assessed as inhibition of bacterial growth measured after 24 hrs by two-fold serial dilution method; assay type: functional
Escherichia coli [8] = experiment: Antibacterial activity against Escherichia coli ATCC 25922 assessed as inhibition of bacterial growth measured after 24 hrs by two-fold serial dilution method; assay type: functional
Escherichia coli [9] = experiment: Antibacterial activity against Escherichia coli assessed as drug resistance by measuring fold change in MIC treated for 16 serial passages and measured every 24 hrs; assay type: functional
Pseudomonas aeruginosa [10] = experiment: Antibacterial activity against Pseudomonas aeruginosa assessed as drug resistance by measuring fold change in MIC treated for 16 serial passages and measured every 24 hrs; assay type: functional
[11] = Haemolytic activity in human erythrocytes incubated for 2 hrs; assay type: ADME, cell-based, Erythrocyte
Escherichia coli [12] = experiment: Antibiofilm activity against Escherichia coli assessed as reduction in biofilm biomass at 0 to 6 times MIC measured after 24 hrs by crystal violet staining based assay; assay type: functional, organism-based
Pseudomonas aeruginosa [13] = experiment: Antibiofilm activity against Pseudomonas aeruginosa assessed as reduction in biofilm biomass at 0 to 6 times MIC measured after 24 hrs by crystal violet staining based assay; assay type: functional, organism-based
Escherichia coli [14] = experiment: Induction of ROS generation in Escherichia coli measured after 6 hrs by DCFH-DA staining based assay; assay type: functional, organism-based
Pseudomonas aeruginosa [15] = experiment: Induction of ROS generation in Pseudomonas aeruginosa measured after 6 hrs by DCFH-DA staining based assay; assay type: functional, organism-based
Cell membrane [16] = experiment: Induction of cytoplasmic membrane depolarization in Escherichia coli assessed as increase in fluorescence intensity at 0 to 6 times MIC by DiSC3-5 dye based fluorescence assay; assay type: subcellular
Cell membrane [17] = experiment: Induction of cytoplasmic membrane depolarization in Pseudomonas aeruginosa assessed as increase in fluorescence intensity at 0 to 6 times MIC by DiSC3-5 dye based fluorescence assay; assay type: subcellular
Cell membrane [18] = experiment: Induction of outer membrane permeabilization in Escherichia coli assessed as increase in NPN uptake by measuring increase in fluorescence intensity incubated for 5 mins by NPN-dye based fluorescence analysis
Cell membrane [19] = experiment: Induction of outer membrane permeabilization in Pseudomonas aeruginosa assessed as increase in NPN uptake by measuring increase in fluorescence intensity incubated for 5 mins by NPN-dye based fluorescence analysis
Cell membrane [20] = experiment: Induction of inner membrane permeabilization in Escherichia coli assessed as increase in PI uptake by measuring increase in fluorescence intensity incubated for 30 mins by propidium iodide staining based fluorescence analysis
Cell membrane [21] = experiment: Induction of inner membrane permeabilization in Pseudomonas aeruginosa assessed as increase in PI uptake by measuring increase in fluorescence intensity incubated for 30 mins by propidium iodide staining based fluorescence analysis
Cell membrane [22] = experiment: Induction of cell membrane disruption in Escherichia coli assessed as increase in protein leakage at 1 to 6 times MIC measured after 6 hrs by Bradford assay
Cell membrane [23] = experiment: Induction of cell membrane disruption in Pseudomonas aeruginosa assessed as increase in protein leakage at 1 to 6 times MIC measured after 6 hrs by Bradford assay
Escherichia coli [24] = experiment: Antibacterial activity against Escherichia coli assessed as reduction in metabolic activity at 1 to 6 times MIC measured after 6 hrs by alamar blue assay; assay type: functional, organism-based
Pseudomonas aeruginosa [25] = experiment: Antibacterial activity against Pseudomonas aeruginosa assessed as reduction in metabolic activity at 1 to 6 times MIC measured after 6 hrs by alamar blue assay; assay type: functional, organism-based
Cell membrane [26] = experiment: Induction of cell membrane disruption in Escherichia coli assessed as reduction in LDH activity at 1 to 4 times MIC measured after 6 hrs; assay type: subcellular
Cell membrane [27] = experiment: Induction of cell membrane disruption in Pseudomonas aeruginosa assessed as reduction in LDH activity at 1 to 4 times MIC measured after 6 hrs; assay type: subcellular
Escherichia coli [28] = experiment: Antibacterial activity against Escherichia coli assessed as drug resistance treated for 16 serial passages and measured every 24 hrs; assay type: functional, organism-based
Pseudomonas aeruginosa [29] = experiment: Antibacterial activity against Pseudomonas aeruginosa assessed as drug resistance treated for 16 serial passages and measured every 24 hrs; assay type: functional, organism-based
Calf thymus DNA [30] = experiment: Binding affinity to calf thymus DNA assessed as assessed as compound-DNA complex formation by measuring hypochromic shift by UV-visible absorption spectrophotometric method; assay type: tissue-based; conditions: Bos taurus
Calf thymus DNA [31] = experiment: Binding affinity to calf thymus DNA assessed as reduction in acridine orange-DNA complex formation by competitive binding assay; conditions: Bos taurus

Compound | MIC (Staphylococcus aureus [1]) [µg/mL] | MIC (Enterococcus faecalis) [µg/mL] | MIC (Staphylococcus aureus [2]) [µg/mL] | MIC (Staphylococcus aureus [3]) [µg/mL] | MIC (Staphylococcus aureus [4]) [µg/mL] | MIC (Klebsiella pneumoniae) [µg/mL] | MIC (Escherichia coli [5]) [µg/mL] | MIC (Pseudomonas aeruginosa [6]) [µg/mL] | MIC (Acinetobacter baumannii) [µg/mL] | MIC (Pseudomonas aeruginosa [7]) [µg/mL] | MIC (Escherichia coli [8]) [µg/mL] | HC50 at 2 h [11] [µg/mL] | also measured
CCn1cc(C(=O)O)c(=O)c2cc(F)c(N3CCNCC3)cc21 [NORFLOXACIN] | 8 (≈ 25.1 µM) | 4 (≈ 12.5 µM) | 4 (≈ 12.5 µM) | 2 (≈ 6.26 µM) | 1 (≈ 3.13 µM) | 2 (≈ 6.26 µM) | 4 (≈ 12.5 µM) | 4 (≈ 12.5 µM) | 2 (≈ 6.26 µM) | 0.5 (≈ 1.57 µM) | 2 (≈ 6.26 µM) |  | fold change (FC) (Escherichia coli [9]): 32; fold change (FC) (Pseudomonas aeruginosa [10]): 32
O=C(/C(=C/c1ccc(C(F)(F)F)cc1)n1cnc2cc(Cl)ccc2c1=O)c1nccs1 | 4 (≈ 8.66 µM) | 2 (≈ 4.33 µM) | 32 (≈ 69.3 µM) | 2 (≈ 4.33 µM) | 1 (≈ 2.17 µM) | 1 (≈ 2.17 µM) | 1 (≈ 2.17 µM) | 1 (≈ 2.17 µM) | 8 (≈ 17.3 µM) | 1 (≈ 2.17 µM) | 2 (≈ 4.33 µM) | > 250 | Activity (Escherichia coli [12]): Active; Activity (Pseudomonas aeruginosa [13]): Active; Activity (Escherichia coli [14]): Dose-Dependent Effect; Activity (Pseudomonas aeruginosa [15]): Dose-Dependent Effect; Activity (Cell membrane [16]): Active; Activity (Cell membrane [17]): Active; Activity (Cell membrane [18]): Dose-Dependent Effect; Activity (Cell membrane [19]): Dose-Dependent Effect; Activity (Cell membrane [20]): Dose-Dependent Effect; Activity (Cell membrane [21]): Dose-Dependent Effect; Activity (Cell membrane [22]): Active; Activity (Cell membrane [23]): Active; Activity (Escherichia coli [24]): Active; Activity (Pseudomonas aeruginosa [25]): Active; Activity (Cell membrane [26]): Active; Activity (Cell membrane [27]): Active; Activity (Escherichia coli [28]): inactive; Activity (Pseudomonas aeruginosa [29]): inactive; Activity (Calf thymus DNA [30]): Active; Activity (Calf thymus DNA [31]): Active
COc1ccc(/C=C(/C(=O)c2nccs2)n2cnc3cc(Cl)ccc3c2=O)cc1 | 8 (≈ 18.9 µM) | 32 (≈ 75.5 µM) | 64 (≈ 151 µM) | 4 (≈ 9.44 µM) | 4 (≈ 9.44 µM) | 512 (≈ 1210 µM) | 32 (≈ 75.5 µM) | 32 (≈ 75.5 µM) | 512 (≈ 1210 µM) | 32 (≈ 75.5 µM) | 32 (≈ 75.5 µM) | 245 | 
O=C(/C(=C/c1ccc(N2CCCCC2)cc1F)n1cnc2cc(Cl)ccc2c1=O)c1nccs1 | 512 (≈ 1030 µM) | 512 (≈ 1030 µM) | 512 (≈ 1030 µM) | 512 (≈ 1030 µM) | 2 (≈ 4.04 µM) | 512 (≈ 1030 µM) | 512 (≈ 1030 µM) | 128 (≈ 259 µM) | 128 (≈ 259 µM) | 32 (≈ 64.6 µM) | 512 (≈ 1030 µM) | 181 | 
